Measurements from patent US9969767B2, “Oxolupene derivatives” (priority 2014, dated 2018).

System: recombinant NL4-3 virus (Renilla luciferase in nef, Gag P373S)
Assay: HIV Cell Culture Assay (luciferase reporter virus in MT-2 cells)
Type: cell-based
Conditions: NL43
Protocol: MT-2 cells and 293T cells were obtained from the NIH AIDS Research and Reference Reagent Program. MT-2 cells were propagated in RPMI 1640 media supplemented with 10% heat inactivated fetal bovine serum, […]. The 293T cells were propagated in DMEM media supplemented with 10% heat inactivated fetal bovine serum (FBS), 100 units/mL penicillin G and 100 μg/mL streptomycin. The proviral DNA clone of NL4-3 was obtained from the NIH AIDS Research and Reference Reagent Program. A recombinant NL4-3 virus, in which a section of the nef gene from NL4-3 was replaced with the Renilla luciferase gene, was used as a reference virus. In addition, residue Gag P373 was converted to P373S. Briefly, the recombinant virus was prepared by transfection of the altered proviral clone of NL4-3. Transfections were performed in 293T cells using LipofectAMINE PLUS from Invitrogen (Carlsbad, Calif.), according to manufacturer's instruction. The virus was titered in MT-2 cells using luciferase enzyme activity as a marker. Luciferase was quantitated using the Dual Luciferase kit from Promega (Madison, Wis.), with modifications to the manufacturer's protocol. The diluted Passive Lysis solution was pre-mixed with the re-suspended Luciferase Assay Reagent and the re-suspended Stop & Glo Substrate (2:1:1 ratio). Fifty (50) μL of the mixture was added to each aspirated well on assay plates and luciferase activity was measured immediately on a Wallac TriLux (Perkin-Elmer). Antiviral activities of inhibitors toward the recombinant virus were quantified by measuring luciferase activity in cells infected for 4-5 days with NLRluc recombinants in the presence serial dilutions of the inhibitor.

CC(C)C1=C2[C@H]3CC[C@@H]4[C@@]5(C)CC=C(C6=CC[C@](CF)(C(=O)O)CC6)C(C)(C)[C@@H]5CC[C@@]4(C)[C@]3(C)CC[C@@]2(CNCCCN2CCS(=O)(=O)CC2)C=C1c1ccccc1 [Example 16, (S)-4-((3aR,5aR,5bR,7aR,11aS,11bR,13aS)-3a-(((3-(1,1-dioxidothiomorpholino)propyl)amino)methyl)-1-isopropyl-5a,5b,8,8,11a-pentamethyl-2-phenyl-4,5,5a,5b,6,7,7a,8,11,11a,11b,12,13,13a-tetradecahydro-3aH-cyclopenta[a]chrysen-9-yl)-1-(fluoromethyl)cyclohex-3-enecarboxylic acid] was tested, and the EC50 was 2.64 nM.
CC(C)C1=C2[C@H]3CC[C@@H]4[C@@]5(C)CC=C(C6=CC[C@](CF)(C(=O)O)CC6)C(C)(C)[C@@H]5CC[C@@]4(C)[C@]3(C)CC[C@@]2(NCCN2CCS(=O)(=O)CC2)C=C1c1ccccc1 [Example 17, (S)-4-((3aR,5aR,5bR,7aR,11aS,11bR,13aS)-3a-((2-(1,1-dioxidothiomorpholino)ethyl)amino)-1-isopropyl-5a,5b,8,8,11a-pentamethyl-2-phenyl-4,5,5a,5b,6,7,7a,8,11,11a,11b,12,13,13a-tetradecahydro-3aH-cyclopenta[a]chrysen-9-yl)-1-(fluoromethyl)cyclohex-3-enecarboxylic acid] was tested, and the EC50 was 109 nM.
